Test results as given in US9439425B2, “Plant disease control composition and plant disease control method” (Sumitomo Chemical Company, Limited, priority 2012, dated 2016).

Test system: powdery mildew
Test: Test Example 1: foliar spray on potted wheat, powdery mildew inoculation, control value from onset area rate
Type: in vivo, Wheat (Shirogane)
Conditions: single agent, foliage spray on wheat, powdery mildew inoculated, 7 days at 21° C.
Protocol: A plastic pot was stuffed with a sand soil. Wheat (Shirogane) was sown thereon, allowed to grow in a greenhouse at 24° C. for 7 days, transferred to a greenhouse at 15° C., and then allowed to grow for 14 days. A water-diluted solution of the present compound (I) and a water-diluted solution of pyriofenone, metrafenone, cyflufenamid, quinoxyfen or proquinazid were mixed to prepare an agent solution containing prescribed amounts of the present compound (I) and, pyriofenone, metrafenone, cyflufenamid, quinoxyfen or proquinazid. The agent solution was sprayed to the foliage of the wheat, then the plant was air-dried, and then a powdery mildew was inoculated. After the inoculation, the plant was allowed to stand at 21° C. for 7 days and then an onset area rate was examined visually and a control value was calculated using the following formula. Moreover, the present compound (I), pyriofenone, metrafenone, cyflufenamid, quinoxyfen or proquinazid was diluted with water to prepare water-diluted solutions with a prescribed concentration, the same test was carried out for each of the solutions and control values were calculated. Control value (%)=100×(A−B)/A A: an onset area rate of the non-treated group B: an onset area rate of the treated group Results are shown in Table 1.

[1] = treatment concentration 0.15 ppm

Row | Compound | Control value [1] | Control value (treatment concentration 0.1 ppm)
1 | Fc1ccc(Oc2ccnc3cc(Cl)cc(Cl)c23)cc1 [Quinoxyfen] | 71% | 
2 | CCCOc1nc2ccc(I)cc2c(=O)n1CCC [Proquinazid] | 74% | 
3 | O=C(Cc1ccccc1)N/C(=N\OCC1CC1)c1c(C(F)(F)F)ccc(F)c1F [Cyflufenamid] | 52% | 
4 | COc1cc(C)c(C(=O)c2c(OC)ccc(Br)c2C)c(OC)c1OC [Metrafenone] | 71% | 
5 | COc1cc(C)c(C(=O)c2c(OC)ncc(Cl)c2C)c(OC)c1OC [Pyriofenone] | 69% | 
6 | C=CCSC(=O)n1c(N)c(-c2ccccc2C)c(=O)n1C(C)C [Present compound (I)] |  | 3%
